# In patent US20080181877A1, “Method For Monitoring the Effect of Compounds on Foxc2 Expression” (LEANGENE AB, C/O CIT Ekonomiservice AB, priority 2006, published 2008):
# Columns and labels:
# Foxc2 expression [1] = experiment: High through-put screening: beta-gal activity (Beta-glo kit) in Foxc2nLacZ MEFs differentiated into adipocytes; format: cell-based, mouse
# Procedure: Primary MEFs from both wild type and Foxc2nLacZ knock-in mice were maintained in DMEM supplied with 10% FBS and antibiotics. For differentiation into adipocytes the MEFs were grown until confluency and then stimulated (Day 0) with a differentiation media (DMEM, 10% FBS, antibiotics, 1 uM dexamethasone, 0.5 mM isobutyl-methyl-xanthine, 10 ug/mL insulin, 20 ng/ml FGF (all from Sigma), and 1 uM rosiglitazone (Alexis)). New differentiation media was added at day 3. At day 5 the differentiation media was removed and the cells were cultured in a media containing DMEM, 10% FBS, antibiotics, 10 ug/mL insulin, 1 uM rosiglitazone, and 20 ng/ml FGF. This media was changed every second day. From day 10 the cells were kept DMEM supplied with 10% FBS and antibiotics for 24 hours as a wash out period before initiating the experiments.
# Foxc2nLacZ MEFs were plated onto gelatine coated 96 well plates. Differentiation was initialized after confluence according to protocol. […] After a wash out period for 24 hours the cells were subjected to different compounds for the indicated time points and subsequently induction of β-gal enzyme activity was measured using the Beta-glo kit (Promega) and a luminometric plate reader. Confluent cells differentiated into adipocytes were detected by increased X-gal staining (FIG. 5a-d), Foxc2nLacZ protein levels increased transiently during the differentiation process. […]
# Foxc2 expression [2] = experiment: Monitoring Foxc2 expression in MEFs by X-gal staining; format: cell-based, mouse; details: acute treatment; MEFs from heterozygous Foxc2nLacZ E13.5 embryos
# Procedure: FIG. 4 specifies the expression of Foxc2 during adipocyte differentiation of mouse embryonic fibroblasts (MEFs), which were isolated from Foxc2nLacZ±E13.5 embryos as well as wt littermates as control. The MEFs were treated with adipocyte differentiation mix (0.5 mM IBMX, 0.25 μM Dex and 10 μg/mL insulin) and X-gal stained at different time points after start of differentiation. Expression of Foxc2 increases during the course of adipocyte differentiation as judge by increasing β-galactosidase activity.
# MEFs were isolated from E13.5 embryos from Foxc2nLacZ±heterozygous intercrosses and genotyped by PCR on DNA from the tail. The head, limbs and viscera were removed from embryos and the remains were minced with a razor blade and incubated in 0.25% trypsin, 0.1% EDTA for 1 h at 37° C. The cell suspension was plated in DMEM containing 10% fetal calf serum and antibiotics (100 units of penicillin and 100 μg/mL streptomycin). Once the cultures reached confluency, 1×10^6 cells were plated on 10-cm tissue culture plates (Falcon) and considered passage 0.
# A cell based high-throughput screening system has been established by isolation of MEFs from heterozygous Foxc2nLacZ±E13.5 embryos as well as from wt embryos as a control.
Compound,"beta-gal activity (Foxc2 expression [1]; Foxc2nLacZ MEFs differentiated into adipocytes, 96 well plates, 50 μg per well at 0 h, acute treatment, Beta-glo kit)","levels of reporter gene over time (Foxc2 expression [1]; single dose, gene construct with in frame fusion of Foxc2 with a reporter gene)",Foxc2nLacZ protein levels (X-gal staining) (Foxc2 expression [2])
"CCCCCCCCCCCCCC(=O)O[C@@H]1[C@@H](C)[C@@]2(O)[C@@H](C=C(CO)C[C@]3(O)C(=O)C(C)=C[C@@H]23)[C@@H]2C(C)(C)[C@]12OC(C)=O [TPA, 12-O-tetradecanoylphorbol-13-acetate]",increase in beta-gal activity,moderate increasing of the levels of reporter gene remaining for long periods at similar levels,–
TNFα,–,–,levels could be induced
"insulin: Insulin, known to be an inducer of Foxc2, may be utilized as a control",–,–,levels could be induced
